Tests used:
P-gp [1] = biological target: T1, P-gp (Homo sapiens, UniProt P08183); assay: Rhodamine-123 efflux assay, HepG2-DR; format: cell-based; parameters: KB V1, HepG2-DR and K562-DR cell expressed P-gp at high level when compared with parental drug sensitive cells thereof; endogenous in cells; host or cells: HepG2-DR (doxorubicin-maintained multidrug resistant subline of HepG2); details: 10 μM, 1 hour efflux
Method: (§1) (Fs: cellular fluorescence intensity of Rb-123 in the presence of testing drugs; Fo: cellular fluorescence intensity of Rh-123 in the absence of any P-gp modulator).
(§2) 1.4 Test for Rh-123 transport: HepG2-DR cells or K562-DR cells (1×10^6 cells in 1 mL complete growth medium) were incubated with 5 μg/mL, Rh-123 at 37° C. for 1 hour to allow Rh-123 uptake. […] Cellular fluorescence of Rh-123 was determined by flow cytometry to analyze the inhibitive effect of test compounds on drug expulsion from cells.

P-gp [2] = biological target: T1, P-gp; assay: Rhodamine-123 efflux assay, K562-DR; format: cell-based; parameters: K562-DR cell expressed P-gp at high level when compared with parental drug sensitive cells thereof; endogenous in cells; details: 10 μM, 1 hour efflux
Method: as §1, §2

T1 sequence (P08183 whole entry): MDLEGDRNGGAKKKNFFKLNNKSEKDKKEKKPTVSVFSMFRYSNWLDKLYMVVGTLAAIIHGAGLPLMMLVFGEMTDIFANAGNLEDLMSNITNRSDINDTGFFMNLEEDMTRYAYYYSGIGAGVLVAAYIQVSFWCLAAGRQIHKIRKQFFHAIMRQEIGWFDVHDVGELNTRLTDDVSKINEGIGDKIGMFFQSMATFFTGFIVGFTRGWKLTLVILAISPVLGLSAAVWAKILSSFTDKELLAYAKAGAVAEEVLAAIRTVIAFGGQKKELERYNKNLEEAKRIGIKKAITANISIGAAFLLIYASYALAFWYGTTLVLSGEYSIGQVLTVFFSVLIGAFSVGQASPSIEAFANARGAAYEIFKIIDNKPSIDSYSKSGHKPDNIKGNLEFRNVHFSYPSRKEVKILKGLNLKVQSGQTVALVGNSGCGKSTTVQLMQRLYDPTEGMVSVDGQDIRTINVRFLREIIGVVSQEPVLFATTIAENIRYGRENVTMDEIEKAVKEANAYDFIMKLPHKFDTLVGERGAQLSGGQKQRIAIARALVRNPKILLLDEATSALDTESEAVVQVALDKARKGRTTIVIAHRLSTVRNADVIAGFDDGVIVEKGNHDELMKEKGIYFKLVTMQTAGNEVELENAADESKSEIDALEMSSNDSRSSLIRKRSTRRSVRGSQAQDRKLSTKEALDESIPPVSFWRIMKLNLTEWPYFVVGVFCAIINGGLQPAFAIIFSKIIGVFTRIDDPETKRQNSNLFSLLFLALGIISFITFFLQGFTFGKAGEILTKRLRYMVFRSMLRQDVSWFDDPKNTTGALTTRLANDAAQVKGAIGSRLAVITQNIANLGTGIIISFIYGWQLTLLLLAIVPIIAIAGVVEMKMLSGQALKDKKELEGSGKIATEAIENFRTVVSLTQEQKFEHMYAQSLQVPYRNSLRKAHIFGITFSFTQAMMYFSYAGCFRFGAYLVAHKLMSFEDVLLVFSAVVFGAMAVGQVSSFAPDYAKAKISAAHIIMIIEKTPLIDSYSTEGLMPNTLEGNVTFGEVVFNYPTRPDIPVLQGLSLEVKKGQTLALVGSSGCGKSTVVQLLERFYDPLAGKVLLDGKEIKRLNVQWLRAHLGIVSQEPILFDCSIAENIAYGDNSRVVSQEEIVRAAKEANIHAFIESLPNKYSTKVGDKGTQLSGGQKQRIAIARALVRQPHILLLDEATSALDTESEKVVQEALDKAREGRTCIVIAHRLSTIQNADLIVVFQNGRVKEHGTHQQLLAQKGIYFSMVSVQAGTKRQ

| Increase in cellular Rh-123 fluorescence compared with untreated cells (P-gp [1]) | Increase in cellular Rh-123 fluorescence compared with untreated cells (P-gp [2]) | SMILES |
| --- | --- | --- |
| 400% | 140% | COc1ccc(C(=O)O[C@@H]2c3c(ccc4ccc(=O)oc34)OC(C)(C)[C@@H]2OC(=O)c2ccc(OC)c(OC)c2)cc1OC (racemic) [cis-DMDBK, (±)-3′-O,4′-O-bis(3,4-dimethoxybenzoyl)-cis-khellactone] |
| 480% | 200% | COc1ccc(/C=C/C(=O)O[C@@H]2c3c(ccc4ccc(=O)oc34)OC(C)(C)[C@@H]2OC(=O)/C=C/c2ccc(OC)c(OC)c2)cc1OC (racemic) [cis-DMDCK, (±)-3′-O,4′-O-bis(3,4-dimethoxycinnamoyl)-cis-khellactone] |
